The results in this text go back to ChEMBL document CHEMBL3751718, “Synthesis and biological evaluation of lipid-like 5-(2-hydroxyethyl)-4-methyl-1,3-thiazole derivatives as potential anticancer and antimicrobial agents” (Medchemcomm, 2015).

Values after ≈ are worked out from the molar mass of the structure shown. Active and inactive are the calls of the source. No cut-off for these calls is given here.

Series [1] is described as follows: Cytotoxicity against human HT1080 cells assessed as cell viability at 6.25 to 50 ug/ml by crystal violet-based assay. Type of series: functional. To be noted: HT-1080, read-out: LC50 (the source's name).
For series [2], the system named is MG-22A. The experiment in a line: Cytotoxicity against mouse MG-22A cells assessed as cell viability at 6.25 to 50 ug/ml after 72 hrs by MTT assay. Type of series: functional. The note with it: read-out: LC50 (the source's name). In general terms: Formazan colour is commonly taken as a measure of viable cells.
Series [3] in a line: Cytotoxicity against mouse NIH/3T3 cells assessed as cell viability at 6.25 to 50 ug/ml by neutral red-based assay. The note with it: nih3t3.
Series [4] relates to Aspergillus niger. The series is described as follows: Antifungal activity against Aspergillus niger MSCL 324 at 5 mg/ml after 48 hrs by agar dish diffusion method. Type of series: functional. The note with it: for zone of inhibition at 5000 µg/mL: MSCL 324, 48 h, read-out: DIZ.
Series [5] deals with Pseudomonas aeruginosa. The series is described as follows: Antibacterial activity against Pseudomonas aeruginosa MSCL 331 at 5 mg/ml after 24 hrs by agar dish diffusion method. Type of series: functional.
Series [6] relates to Aspergillus niger. The series is described as follows: Antifungal activity against Aspergillus niger MSCL 324 at 10 mg/ml after 48 hrs by agar dish diffusion method. The series is classed as functional. The note with it: for zone of inhibition at 10000 µg/mL: MSCL 324, 48 h, read-out: DIZ.
Series [7] relates to MG-22A. The series is described as follows: Induction of nitric oxide production in mouse MG-22A cells by Griess assay. Set-up: concentration or dose not given beside the values. Type of series: functional.
Series [8] has as its system Proteus mirabilis. The series is described as follows: Antibacterial activity against Proteus mirabilis MSCL 590 at 5 mg/ml after 24 hrs by agar dish diffusion method. The series is classed as functional.
Series [9] concerns MG-22A. The series is described as follows: Cytotoxicity against mouse MG-22A cells assessed as cell viability at 6.25 to 50 ug/ml by crystal violet-based assay. Type of series: functional. The note with it: read-out: LC50 (the source's name).
The subject of series [10] is Proteus mirabilis. The experiment in a line: Antibacterial activity against Proteus mirabilis MSCL 590 at 10 mg/ml after 24 hrs by agar dish diffusion method. The series is classed as functional.
Series [11] deals with Candida albicans. The experiment in a line: Antifungal activity against Candida albicans MSCL 378 at 5 mg/ml after 48 hrs by agar dish diffusion method. The series is classed as functional. The note with it: for zone of inhibition at 5000 µg/mL: MSCL 378, 48 h, read-out: DIZ.
Series [12] deals with Staphylococcus aureus. The experiment in a line: Antibacterial activity against Staphylococcus aureus MSCL 334 at 5 mg/ml after 24 hrs by agar dish diffusion method. Type of series: functional.
The subject of series [13] is Bacillus cereus. The series is described as follows: Antibacterial activity against Bacillus cereus MSCL 330 at 5 mg/ml after 24 hrs by agar dish diffusion method. Type of series: functional. The note with it: for zone of inhibition at 5000 µg/mL: MSCL 330, 24 h, read-out: DIZ.
In series [14] the test system is Escherichia coli. The series is described as follows: Antibacterial activity against Escherichia coli MSCL 332 at 5 mg/ml after 24 hrs by agar dish diffusion method. Type of series: functional.
The subject of series [15] is Candida albicans. The experiment in a line: Antifungal activity against Candida albicans MSCL 378 at 10 mg/ml after 48 hrs by agar dish diffusion method. Type of series: functional. To be noted: for zone of inhibition at 10000 µg/mL: MSCL 378, 48 h, read-out: DIZ.
In series [16] the test system is Pseudomonas aeruginosa. The series is described as follows: Antibacterial activity against Pseudomonas aeruginosa MSCL 331 at 10 mg/ml after 24 hrs by agar dish diffusion method. The series is classed as functional.
Series [17] in a line: Cytotoxicity against human HT1080 cells assessed as cell viability at 6.25 to 50 ug/ml after 72 hrs by MTT assay. Type of series: functional. To be noted: HT-1080, 72 h, read-out: LC50 (the source's name).
Series [18] deals with Bacillus cereus. The series is described as follows: Antibacterial activity against Bacillus cereus MSCL 330 at 10 mg/ml after 24 hrs by agar dish diffusion method. Type of series: functional. The note with it: for zone of inhibition at 10000 µg/mL: MSCL 330, 24 h, read-out: DIZ.
Series [19] relates to Staphylococcus aureus. The series is described as follows: Antibacterial activity against Staphylococcus aureus MSCL 334 at 10 mg/ml after 24 hrs by agar dish diffusion method. The series is classed as functional. The note with it: for zone of inhibition at 10000 µg/mL: MSCL 334, 24 h, read-out: DIZ.
In another series the test system is HT-1080. The experiment in a line: Induction of nitric oxide production in human HT1080 cells by Griess assay. Set-up: concentration or dose not given beside the values. The series is classed as functional. Background: The Griess reaction detects nitrite, a stable product of nitric oxide.
The subject of series [20] is Escherichia coli. The experiment in a line: Antibacterial activity against Escherichia coli MSCL 332 at 10 mg/ml after 24 hrs by agar dish diffusion method. The series is classed as functional.
Series [21] concerns Candida albicans. The series is described as follows: Fungicidal activity against Candida albicans MSCL 378 incubated for 24 hrs followed by colony transfer to agar plates for 24 hrs by colony counting based assay. Type of series: functional. The note with it: MSCL 378, 24 h, read-out: MFC99.9.
Series [22] relates to Bacillus cereus. The experiment in a line: Antibacterial activity against Bacillus cereus MSCL 330 after 24 hrs by broth dilution method. The note with it: MSCL 330, 24 h. Type of series: functional.
Series [23] deals with Aspergillus niger. The experiment in a line: Fungicidal activity against Aspergillus niger MSCL 324 incubated for 24 hrs followed by colony transfer to agar plates for 24 hrs by colony counting based assay. The series is classed as functional. To be noted: MSCL 324, 24 h, read-out: MFC99.9.
For series [24], the system named is Aspergillus niger. The experiment in a line: Antifungal activity against Aspergillus niger MSCL 324 after 24 hrs by broth dilution method. Type of series: functional. To be noted: MSCL 324, 24 h.
In series [25] the test system is Candida albicans. The experiment in a line: Antifungal activity against Candida albicans MSCL 378 after 24 hrs by broth dilution method. Type of series: functional. The note with it: MSCL 378, 24 h. On the technique in general: Broth dilution looks for growth in wells or tubes with falling amounts of substance.
In series [26] the test system is Bacillus cereus. The series is described as follows: Bactericidal activity against Bacillus cereus MSCL 330 incubated for 24 hrs followed by colony transfer to agar plates for 24 hrs by colony counting based assay. Type of series: functional. To be noted: MSCL 330, 24 h, read-out: MBC99.9.

As usually defined, the LC50 is the concentration lethal to half of the exposed cells or organisms. As to `CCCCCCCCCCCOCCc1scnc1C`, the CC50 in series [1] was 53.8 µM; in the series on MG-22A [2], 53.8 µM; in the series with MG-22A [9], 47.1 µM; in series [17], 50.5 µM. Further, in series [3], the LC50 amounted to 47.1 µM. Further, the zone of inhibition at 5000 µg/mL in the series on Aspergillus niger [4] came out at 9 mm; with Proteus mirabilis [8] (MSCL 590, 24 h, read-out: DIZ) it was 8 mm; with Candida albicans [11], 14 mm; in the series with Staphylococcus aureus [12] (MSCL 334, 24 h, read-out: DIZ), 10 mm; with Bacillus cereus [13], 10 mm; in the series with Escherichia coli [14] (MSCL 332, 24 h, read-out: DIZ), 9 mm. Further, the “diameter of the inhibition zone (DIZ)” value in the series on Pseudomonas aeruginosa [5] was “inactive”. Also, the zone of inhibition at 10000 µg/mL came to 15 mm in the series with Aspergillus niger [6]; 10 mm in the series on Proteus mirabilis [10] (MSCL 590, 24 h, read-out: DIZ); 15 mm in the series on Candida albicans [15]; 10 mm with Pseudomonas aeruginosa [16] (MSCL 331, 24 h, read-out: DIZ); 11 mm in the series with Bacillus cereus [18]; 13 mm in the series with Staphylococcus aureus [19]. Also, the zone of inhibition at 10000 µg/mL in the series with Escherichia coli [20] (MSCL 332, 24 h, read-out: DIZ) worked out at 10 mm. The Activity in the series on MG-22A [7] and in the series with HT-1080 was 100% throughout.

A word on the MIC: it is the lowest concentration that inhibits growth of the organism. As to `CCCCCCCCCCOCCc1scnc1C`, the MFC was greater than 256 µg/mL in the series on Candida albicans [21] and 64 µg/mL (≈ 226 µM) in the series on Aspergillus niger [23]. Besides, the CC50 is 60 µM in series [1], 45.9 µM in the series with MG-22A [2], 38.8 µM in the series on MG-22A [9] and 63.6 µM in series [17]. Further, the LC50 in series [3] is 84.8 µM. Further, the zone of inhibition at 5000 µg/mL in the series with Aspergillus niger [4] worked out at 11 mm; in the series on Candida albicans [11] it was 13 mm; in the series on Bacillus cereus [13], 9 mm. Also, the “diameter of the inhibition zone (DIZ)” value with Pseudomonas aeruginosa [5], with Proteus mirabilis [8], with Proteus mirabilis [10], in the series on Staphylococcus aureus [12], in the series with Escherichia coli [14] and in the series on Pseudomonas aeruginosa [16] was “inactive” in each case. Also, in the series with Escherichia coli [20], the “diameter of the inhibition zone (DIZ)” value is “inactive”. Further, the zone of inhibition at 10000 µg/mL in the series with Aspergillus niger [6] stood at 11 mm; in the series with Candida albicans [15], 9 mm; in the series on Bacillus cereus [18] it was 10 mm; in the series with Staphylococcus aureus [19], 10 mm. Moreover, the results for the minimum inhibitory concentration (MIC) with Bacillus cereus [22], with Aspergillus niger [24] and in the series with Candida albicans [25] were 2 µg/mL (≈ 7.06 µM), 32 µg/mL (≈ 113 µM) and greater than 256 µg/mL, respectively. Besides, the Activity amounted to 200% with MG-22A [7] and 400% with HT-1080. Further, the MBC in the series with Bacillus cereus [26] was greater than 256 µg/mL.

As for GENTAMICIN, the “diameter of the inhibition zone (DIZ)” value in the series with Aspergillus niger [4], in the series on Aspergillus niger [6], in the series on Candida albicans [11] and in the series on Candida albicans [15] was “inactive” in each case. Besides, the inhibition zone (IZ) with Pseudomonas aeruginosa [5] was found to be 31 mm; in the series with Proteus mirabilis [8], 28 mm; in the series on Proteus mirabilis [10] it was 31 mm; with Staphylococcus aureus [12] it was 30 mm; in the series with Bacillus cereus [13] it was 35 mm; with Escherichia coli [14], 27 mm. Further, the inhibition zone (IZ) with Pseudomonas aeruginosa [16] is 32 mm; in the series with Bacillus cereus [18], 36 mm; with Staphylococcus aureus [19], 32 mm; with Escherichia coli [20], 30 mm.
